From patent US20250289813A1, “CDK INHIBITORS, PHARMACEUTICAL COMPOSITIONS, AND THERAPEUTIC APPLICATIONS” (ONQUALITY PHARMACEUTICALS CHINA LTD., priority 2022, published 2025)

Assays:
CDK6/cyclin D1 = CDK6/cyclin D1 (Homo sapiens (Human), UniProt Q00534); test: CDK6 Caliper Mobility Shift assay; format: biochemical
Summary of the method: (§1)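 Caliper mobility-shift kinase assay with FAM-labeled peptide substrate. CDK4/cyclin D1 (15 nM) ran in 20 mM HEPES pH 7.5, 0.01% Triton X-100 at […] ATP; CDK6/cyclin D1 (7.5 nM) in 50 mM HEPES pH 7.5, 0.0015% BRIJ-35 at […] ATP. Compound was pre-incubated 10 min, reactions ran at 28 °C, and IC50 came from percent conversion inhibition.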

[1] = test system: COLO205 human colon cancer cells; test: CASPASE-GLO 3/7 apoptosis assay (protection against chemotherapy drug induced cytotoxicity); format: cell-based; conditions: Irinotecan (20 μM)
Procedure: The CASPASE-GLO 3/7 apoptosis assay was used to evaluate the protective effect of a compound on the cytotoxicity induced by a chemotherapy drug. The apoptosis assay was carried out using COLO205 human colon cancer cells. The cells were grown at 37° C. in a 5% CO2 humidified incubator in PRIM1640 supplemented with 10% FBS and 0.01 mg/mL bovine insulin. The cells were seeded at 4,000 cells/well in a 96-well plate. After incubated overnight, the cells were pretreated with a compound at predetermined concentrations or a vehicle for 16 h, followed by addition of a chemotherapy drug. After incubated for another 48 h, the CASPASE-GLO 3/7 reagent (100 μL/well) was added. The cells were mixed on an orbital shaker for 10 min and incubated at room temperature for 2 h. The 96-well plate was read with an ENVISION reader.

BALB/c mice [2] = test: 5-FU-induced diarrhea mouse model; format: in vivo; conditions: day 7
Procedure: A compound was evaluated in a 5-FU-induced diarrhea mouse model for its protective effect on the cytotoxicity induced by the chemotherapy drug 5-FU. On day 0, BALB/c mice (20-25 g, 7-8 weeks of age) were randomly divided into 3 groups (vehicle, 5-FU, and compound treatment) with 10 mice in each group. In the vehicle group, the mice were administered orally with the same medium in the same amount as used in the treatment group for the compound and then injected with the same medium in the same amount as used in the 5-FU group. In the 5-FU group, the mice were administered orally with the same medium in the same amount as used in the treatment group for the compound and then injected with 5-FU (175 mg/kg). In the treatment group, the mice were administrated orally with the compound and then injected with 5-FU (175 mg/kg). The compound was formulated with a 0.5% CMC solution.
On day 7, the diarrhea grade of each mouse was determined according to the method described in Kurita et al., Cancer Chemother. Pharmacol. 2000, 46, 211-20, the disclosure of which is incorporated herein by reference in its entirety. Diarrhea remission rates were calculated using the formula of Diarrhea remission rate (%)=(diarrhea grade in 5-FU group—diarrhea grade in treatment group)/diarrhea grade in 5-FU group×100%.

[3] = test system: MCF-7 human breast cancer cells; test: CELLTITER-GLO luminescent cell viability assay; format: cell-based; conditions: MCF7, 192 h, MCF-7 cells, 8 days, read-out: EC50 (Effect on Cell Viability)
Summary of the method: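 MCF-7 cells grown in EMEM with 10% FBS and insulin, seeded at 3,000 cells/well and left to adhere overnight. Compound exposure lasted 8 days at 37 °C; viability was read by CellTiter-Glo luminescence.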

CDK4/cyclin D1 = CDK4/cyclin D1 (Homo sapiens (Human), UniProt P11802); test: CDK4 Caliper Mobility Shift assay; format: biochemical
CDK4/cyclin D1, sequence (P11802 whole entry): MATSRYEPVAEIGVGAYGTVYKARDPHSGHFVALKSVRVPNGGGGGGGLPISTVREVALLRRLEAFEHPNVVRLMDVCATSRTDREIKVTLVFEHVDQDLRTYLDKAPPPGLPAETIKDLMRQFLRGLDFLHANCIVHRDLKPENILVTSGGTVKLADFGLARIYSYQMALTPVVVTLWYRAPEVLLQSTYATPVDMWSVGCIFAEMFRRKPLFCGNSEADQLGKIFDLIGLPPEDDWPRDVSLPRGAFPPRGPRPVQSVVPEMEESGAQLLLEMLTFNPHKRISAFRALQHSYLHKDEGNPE
CDK4/cyclin D1, sequence (P24385 whole entry partner): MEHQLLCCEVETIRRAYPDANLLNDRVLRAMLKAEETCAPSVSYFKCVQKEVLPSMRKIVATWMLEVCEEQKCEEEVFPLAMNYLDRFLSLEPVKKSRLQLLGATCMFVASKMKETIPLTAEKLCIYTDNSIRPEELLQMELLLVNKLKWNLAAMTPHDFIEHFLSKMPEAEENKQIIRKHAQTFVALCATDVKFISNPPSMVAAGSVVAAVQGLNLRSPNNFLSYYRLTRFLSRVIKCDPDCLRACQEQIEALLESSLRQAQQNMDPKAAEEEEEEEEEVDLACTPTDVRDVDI
Summary of the method: as §1

BALB/c mice [4] = test: Irinotecan-induced diarrhea/constipation mouse model; format: in vivo; conditions: Day 7
Procedure: A compound was evaluated in an irinotecan-induced diarrhea/constipation mouse model for its protective effect on the cytotoxicity induced by a chemotherapy drug. On day 0, BALB/c mice (20-25 g, 7-8 weeks of age) were randomly divided into 3 groups (vehicle, irinotecan, and compound treatment) with 10 mice in each group. In the vehicle group, the mice were administered orally with the same medium in the same amount as used in the treatment group for the compound and then injected with the same medium in the same amount as used in the irinotecan group. In the irinotecan group, the mice were administered orally with the same medium in the same amount as used in the treatment group for the compound and then injected with irinotecan (240 mg/kg). In the treatment group, the mice were administrated orally with the compound and then injected with irinotecan (240 mg/kg). The compound was formulated with a 0.5% CMC solution. […]
On Day 7, the diarrhea grade of each mouse was determined according to the method described in Kurita et al., Cancer Chemother. Pharmacol. 2000, 46, 211-20, the disclosure of which is incorporated herein by reference in its entirety. The diarrhea remission rates were calculated using the formula of Diarrhea remission rate (%)=(diarrhea grade in […]−diarrhea grade in treatment group)/diarrhea grade in 5-FU group×100%.

CDK6/cyclin D1, sequence (Q00534 whole entry): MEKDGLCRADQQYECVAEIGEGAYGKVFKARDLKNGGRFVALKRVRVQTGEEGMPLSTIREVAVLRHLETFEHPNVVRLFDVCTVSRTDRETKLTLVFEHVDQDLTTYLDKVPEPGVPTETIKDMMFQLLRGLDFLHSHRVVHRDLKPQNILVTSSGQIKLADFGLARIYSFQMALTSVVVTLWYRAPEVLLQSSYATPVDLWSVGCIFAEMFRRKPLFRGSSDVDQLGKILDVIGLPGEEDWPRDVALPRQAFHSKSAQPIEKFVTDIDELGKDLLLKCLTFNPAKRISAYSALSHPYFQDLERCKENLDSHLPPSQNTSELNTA
CDK6/cyclin D1, sequence (P24385 whole entry partner): as the sequence (P24385 whole entry partner) above

Compound	IC50 (CDK6/cyclin D1) [nM]	RPR (relative protection rate) ([1]; compound 2 μM) [%]	RPR (relative protection rate) ([1]; compound 20 μM) [%]	Remission Rate (diarrhea remission rate) (BALB/c mice [2]; 5 mg/kg oral, 12 h before 5-FU (175 mg/kg)) [%]	Remission Rate (diarrhea remission rate) (BALB/c mice [2]; 25 mg/kg oral, 12 h before 5-FU (175 mg/kg)) [%]	EC50 [3] [nM]	IC50 (CDK4/cyclin D1) [nM]	Remission Rate (diarrhea remission rate) (BALB/c mice [4]; 10 mg/kg oral, 6 h before and 6 h after irinotecan (240 mg/kg)) [%]	Remission Rate (diarrhea remission rate) (BALB/c mice [4]; 100 mg/kg oral, 6 h before and 6 h after irinotecan (240 mg/kg)) [%]	RPR (relative protection rate) ([1]; compound 5 μM) [%]	RPR (relative protection rate) ([1]; compound 50 μM) [%]	RPR (relative protection rate) ([1]; compound 100 μM) [%]	Remission Rate (diarrhea remission rate) (BALB/c mice [2]; 10 mg/kg oral, 8 h before and 4 h after 5-FU (175 mg/kg)) [%]	Remission Rate (diarrhea remission rate) (BALB/c mice [4]; 10 mg/kg oral, 4 h before and 8 h after irinotecan (240 mg/kg)) [%]
CCC(=O)NS(=O)(=O)N1CCN(c2ccc(Nc3ncc4c(C)c(C(C)=O)c(=O)n(C5CCCC5)c4n3)nc2)CC1 [Compound A35, N-((4-(6-((6-Acetyl-8-cyclopentyl-5-methyl-7-oxo-7,8-dihydropyrido[2,3-d]-pyrimidin-2-yl)amino)pyridin-3-yl)piperazin-1-yl)sulfonyl)propionamide]	≤ 200	83	81	40	50	1000 to 10000	≤ 200	50	70					
CC(=O)c1c(C)c2cnc(Nc3ccc(N4CCN(S(=O)(=O)OCOC(=O)C(C)(C)C)CC4)cn3)nc2n(C2CCCC2)c1=O [Compound B1, (((4-(6-((6-acetyl-8-cyclopentyl-5-methyl-7-oxo-7,8-dihydropyrido[2,3-d]-pyrimidin-2-yl)amino)pyridin-3-yl)piperazin-1-yl)sulfonyl)oxy)methyl pivalate]	≤ 200					≤ 1000	≤ 200			90	65	32	38	60
